Source: US6395785B1 (Orion Corporation, priority 1998, dated 2002)
Where two headings read alike, the source gives them in different places.

Key:
[1] = test system: estrogen-induced increase in uterine weight
Description: (§1) The estrogenic/antiestrogenic activity of the study drug was tested by measuring the effect on the uterine weight in immature (18 days old) female Sprague-Dawley rats. The compound was given p.o. in a PEG-solution for 3 days (n=5/group). At the same time the ability of the study drug to inhibit estrogen-induced increase in uterine weight was studied in rats given estradiol 50 μg/kg s.c. Comparison was made with the corresponding Z-isomer.

[2] = test system: uterine weight in immature female Sprague-Dawley rats; details: for Average uterine weight (weight after mere E2-treatment was taken as 1.00): drug alone
Description: as §1

Hep G2 cell cultures = details: for Cholesterol biosynthesis level (% of control): 2 hours, Hep G2; for Effect on cholesterol biosynthesis (in words): in vitro cell culture system, 0.01 to 10 micromolar
Description: The effects on cholesterol biosynthesis was studied in vitro in Hep G2 cell cultures using ^14C-acetate as cholesterol precursor. The test compound was added into the culture medium at concentrations from 0.01 to 10 micromolar. After 2 hours the culture was stopped and the newly synthesized cholesterol was quantitated by thin-layer chromatography. Comparison was made with the Z-isomer.

[3] = test system: uterine weight in ovarectomized adult female Sprague-Dawley rats; assay: Uterine weight in ovarectomized adult female rats; type: in vivo; details: for Relative uterine weight (control level taken as 1.00): ovarectomized rats
Description: (§2) The effects on uterine weight and on serum cholesterol levels were studied in intact and ovarectomized adult female Sprague-Dawley rats. […] In the ovarectomy study the study drug was given p.o. at a daily dose of 0.1, 1 or 10 mg/kg for 4 weeks and comparison was made with the corresponding Z-isomer and estradiol (100 μg/kg). The serum cholesterol content was determined by an enzymatic method. In the ovarectomy study the serum cholesterol and cholesterol precursor molecule content was determined by gas-liquid chromatography.

serum cholesterol [4] = details: for Serum cholesterol content (control level taken as 1.00): ovarectomized rats; for Decrease of serum cholesterol level (maximum): ovarectomy study, over the doses tested
Description: as §2

[5] = test system: serum cholesterol precursor molecule; details: ovarectomy study
Description: as §2

[6] = test system: uterine weight in intact adult female Sprague-Dawley rats; assay: Uterine weight in intact adult female rats; details: p.o. 3.17 mg/kg daily or equimolar dose, two weeks
Description: as §2

serum cholesterol [7] = assay: Serum cholesterol in intact adult female rats; details: for Serum cholesterol content (control level taken as 1.00; mean ± SD, n = 3): intact rats, p.o. 3.17 mg/kg daily or equimolar dose, two weeks
Description: as §2

[8] = 0.1 mg/kg p.o. for 3 days + E2 (estradiol 50 μg/kg s.c.)
[9] = 0.5 mg/kg p.o. for 3 days + E2 (estradiol 50 μg/kg s.c.)
[10] = 1 mg/kg p.o. for 3 days + E2 (estradiol 50 μg/kg s.c.)
[11] = 10 mg/kg p.o. for 3 days + E2 (estradiol 50 μg/kg s.c.)

Compound | Average uterine weight (weight after mere E2-treatment was taken as 1.00) [1, 8] | Average uterine weight (weight after mere E2-treatment was taken as 1.00) [1, 9] | Average uterine weight (weight after mere E2-treatment was taken as 1.00) [1, 10] | Average uterine weight (weight after mere E2-treatment was taken as 1.00) [1, 11] | Average uterine weight (weight after mere E2-treatment was taken as 1.00) ([2]; 0.1 mg/kg p.o. for 3 days) | Average uterine weight (weight after mere E2-treatment was taken as 1.00) ([2]; 0.5 mg/kg p.o. for 3 days) | Average uterine weight (weight after mere E2-treatment was taken as 1.00) ([2]; 1 mg/kg p.o. for 3 days) | Average uterine weight (weight after mere E2-treatment was taken as 1.00) ([2]; 10 mg/kg p.o. for 3 days) | Cholesterol biosynthesis level (% of control) (Hep G2 cell cultures; 0.01 μM) | Cholesterol biosynthesis level (% of control) (Hep G2 cell cultures; 0.1 μM) | Cholesterol biosynthesis level (% of control) (Hep G2 cell cultures; 1 μM) | Cholesterol biosynthesis level (% of control) (Hep G2 cell cultures; 10 μM) | Effect on cholesterol biosynthesis (in words) (Hep G2 cell cultures) | Relative uterine weight (control level taken as 1.00) ([3]; 0.1 mg/kg p.o. daily, 4 weeks) | Relative uterine weight (control level taken as 1.00) ([3]; 1 mg/kg p.o. daily, 4 weeks) | Relative uterine weight (control level taken as 1.00) ([3]; 10 mg/kg p.o. daily, 4 weeks) | Serum cholesterol content (control level taken as 1.00) (serum cholesterol [4]; 1 mg/kg p.o. daily, 4 weeks) | Serum cholesterol content (control level taken as 1.00) (serum cholesterol [4]; 10 mg/kg p.o. daily, 4 weeks) | Relative uterine weight (control level taken as 1.00; mean ± SD, n = 3) [6] | Serum cholesterol content (control level taken as 1.00; mean ± SD, n = 3) (serum cholesterol [7]) | other results
OCCOc1ccc(/C(=C(/CCCl)c2ccccc2)c2ccccc2)cc1 [1271a (Z), Z-2-[4-(4-chloro-1,2-diphenyl-but-1-enyl)phenoxy]ethanol] | 1.18 | 1.11 | 0.91 | 0.91 | 0.27 | 0.43 | 0.53 | 0.75 | 143 % of control | 127 % of control | 129 % of control | 132 % of control | had an opposite effect | 1.22 | 1.78 | 2.04 | 0.96 | 0.66 | 0.75 ± 0.06 | 0.65 ± 0.10 | Serum cholesterol content (control level taken as 1.00) (serum cholesterol [4]; 0.5 mg/kg): 0.90; Serum cholesterol content (control level taken as 1.00) (serum cholesterol [4]; 5 mg/kg): 0.89; Decrease of serum cholesterol level (maximum) (serum cholesterol [4]): up to 34%; Effect on serum cholesterol precursor molecule level (in words) [5]: not; Efficacy in decreasing serum cholesterol level (in words) (serum cholesterol [7]; intact adult female rats, compared with the other drugs): less effective
OCCOc1ccc(/C(=C(\CCCl)c2ccccc2)c2ccccc2)cc1 [1271b (E), E-2-[4-(4-chloro-1,2-diphenyl-but-1-enyl)phenoxy]ethanol] | 0.81 | 0.82 | 0.57 | 0.83 | 0.37 | 0.45 | 0.44 | 0.75 | 89 % of control | 90 % of control | 89 % of control | 84 % of control | inhibited slightly cholesterol biosynthesis | 1.54 | 1.50 | 1.53 | 0.62 | 0.23 | 0.85 ± 0.07 | 0.43 ± 0.05 | Estrogenic and antiestrogenic effect compared to the corresponding Z-isomer (in words) ([2]; immature rat uterine weight test): approximately equal estrogenic and antiestrogenic effect; Increase of relative uterus weight ([3]; ovarectomy study, 0.1, 1 or 10 mg/kg p.o., 4 weeks): 1.5 fold; Serum cholesterol content (control level taken as 1.00) (serum cholesterol [4]; 0.1 mg/kg p.o. daily, 4 weeks): 0.92; Decrease of serum cholesterol level (maximum) (serum cholesterol [4]): up to 77%; Effect on serum cholesterol precursor molecule level (in words) [5]: increased slightly
C[C@]12CC[C@@H]3c4ccc(O)cc4CC[C@H]3[C@@H]1CC[C@@H]2O [Estradiol] | – | – | – | – | – | – | – | – | – | – | – | – | – | – | – | – | – | – | 1.29 ± 0.06 | 0.48 ± 0.09 | Increase of relative uterus weight ([3]; ovarectomy study, estradiol 100 μg/kg): 3.3 fold
O=C(c1ccc(OCCN2CCCCC2)cc1)c1c(-c2ccc(O)cc2)sc2cc(O)ccc12 [Raloxifene] | – | – | – | – | – | – | – | – | – | – | – | – | – | – | – | – | – | – | 0.77 ± 0.21 | 0.48 ± 0.09 | –
CN(C)CCOc1ccc(/C(=C(/CCCl)c2ccccc2)c2ccccc2)cc1 [Toremifene (E)] | – | – | – | – | – | – | – | – | – | – | – | – | – | – | – | – | – | – | 1.09 ± 0.10 | 0.40 ± 0.18 | –
